Data from patent US8822503B2, “2-pyridone compounds” (Taisho Pharmaceutical Co., Ltd, priority 2009, dated 2014).
pEC50: −log10 of the molar value.

Target: T1, human liver GK (Homo sapiens, UniProt P35557)
T1 construct: GST (glutathione S-transferase) (N); made in house; host or cells: E. coli
T1 sequence (P35557 1-466 isoform P35557-2): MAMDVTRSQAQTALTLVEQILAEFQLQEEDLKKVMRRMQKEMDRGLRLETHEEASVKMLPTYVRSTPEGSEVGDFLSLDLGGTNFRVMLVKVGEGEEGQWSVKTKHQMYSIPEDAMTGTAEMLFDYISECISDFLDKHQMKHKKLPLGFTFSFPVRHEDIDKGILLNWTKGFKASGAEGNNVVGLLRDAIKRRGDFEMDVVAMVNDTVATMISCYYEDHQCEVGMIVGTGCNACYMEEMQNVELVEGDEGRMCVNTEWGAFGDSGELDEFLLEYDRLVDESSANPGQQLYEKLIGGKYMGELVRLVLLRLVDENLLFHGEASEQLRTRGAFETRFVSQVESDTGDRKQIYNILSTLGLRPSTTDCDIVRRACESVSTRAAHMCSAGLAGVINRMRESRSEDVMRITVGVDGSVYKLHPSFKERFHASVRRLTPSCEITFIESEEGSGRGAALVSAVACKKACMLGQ
Test: GK activation test
Type: biochemical
Details: test compound concentration needed to activate 50% of maximum activation ability; 4 mM 14C-labeled glucose, 2 mM ATP, room temperature, 20 minutes
Procedure, shortened: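 GST-tagged human liver GK from E. coli (0.24 μg/well) with 4 mM 14C-glucose, 2 mM ATP in Hepes-KOH pH 7.1, KCl, MgCl2, DTT, 1% DMSO, 20 min room temperature. Labeled glucose 6-phosphate captured on anion resin, eluted and counted. EC50 = concentration giving half of maximal activation.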

| Compound | pEC50 |
| --- | --- |
| CC(C)(C)c1ccc(/C(=C\[C@H]2CCC(=O)N2)c2ccc(CCC(N)=O)c(=O)[nH]2)cc1 [Example 4-201, 3-(6-{(E)-1-(4-tert-Butylphenyl)-2-[(2R)-5-oxopyrrolidin-2-yl]ethenyl}-2-oxo-1,2-dihydropyridin-3-yl)propanamide] | 5.52 to 6.30 |
| CC(C)(C)c1ccc(/C(=C\[C@H]2CCC(=O)N2)c2ccc(C#N)c(=O)[nH]2)cc1 [Example 4-202, 6-{(E)-1-(4-tert-Butylphenyl)-2-[(2R)-5-oxopyrrolidin-2-yl]ethenyl}-2-oxo-1,2-dihydropyridine-3-carbonitrile] | 5.52 to 6.30 |
| CC(C)(C)c1ccc(C(=C[C@H]2CCC(=O)N2)c2ccc(C3(O)CCC3)c(=O)[nH]2)cc1 [Example 4-203, 6-{1-(4-tert-Butylphenyl)-2-[(2R)-5-oxopyrrolidin-2-yl]ethenyl}-3-(1-hydroxycyclobutyl)pyridin-2(1H)-one] | 5.00 to 5.52 |
| O=C1CC[C@H](C[C@@H](c2ccc(Cl)c(Cl)c2)c2ccc(C3CC3)c(=O)[nH]2)N1 [Example 4-208, 3-Cyclopropyl-6-{(1S)-1-(3,4-dichlorophenyl)-2-[(2R)-5-oxopyrrolidin-2-yl]ethyl}pyridin-2(1H)-one] | 5.00 to 5.52 |
| CCOc1ccc(C(C[C@H]2CCC(=O)N2)c2ccc(Cl)c(=O)[nH]2)cc1F (stereo partly drawn) [Example 4-241, 3-Chloro-6-{1-(4-ethoxy-3-fluorophenyl)-2-[(2R)-5-oxopyrrolidin-2-yl]ethyl}pyridin-2(1H)-one] | 5.00 to 5.52 |
| Cc1ccc(/C(=C\[C@H]2CCC(=O)N2)c2ccc(Cl)c(=O)[nH]2)cc1 [Example 4-256, 3-Chloro-6-{(E)-1-(4-methylphenyl)-2-[(2R)-5-oxopyrrolidin-2-yl]ethenyl}pyridin-2(1H)-one] | 5.52 to 6.30 |
| O=C1CC[C@H](/C=C(\c2ccc(C(F)(F)F)cc2)c2ccc(C(F)(F)F)c(=O)[nH]2)N1 [Example 4-259, 6-{(E)-2-[(2R)-5-Oxopyrrolidin-2-yl]-1-[4-(trifluoromethyl)phenyl]ethenyl}-3-(trifluoromethyl)pyridin-2(1H)-one] | 5.52 to 6.30 |
| O=C1CC[C@H](/C=C(\c2cccc(C(F)(F)F)c2)c2ccc(Cl)c(=O)[nH]2)N1 [Example 4-261, 3-Chloro-6-{(E)-2-[(2R)-5-oxopyrrolidin-2-yl]-1-[3-(trifluoromethyl)phenyl]ethenyl}pyridin-2(1H)-one] | 5.00 to 5.52 |
| O=C1CC[C@H](/C=C(/c2ccc(Cl)c(=O)[nH]2)c2ccc(C(F)(F)F)cc2F)N1 [Example 4-262, 3-Chloro-6-{(E)-1-[2-fluoro-4-(trifluoromethyl)phenyl]-2-[(2R)-5-oxopyrrolidin-2-yl]ethenyl}pyridin-2(1H)-one] | 5.52 to 6.30 |
| CC1(C)CCc2cc(/C(=C\[C@H]3CCC(=O)N3)c3ccc(Cl)c(=O)[nH]3)ccc2O1 [Example 4-263, 3-Chloro-6-{(E)-1-(2,2-dimethyl-3,4-dihydro-2H-chromen-6-yl)-2-[(2R)-5-oxopyrrolidin-2-yl]ethenyl}pyridin-2(1H)-one] | 5.52 to 6.30 |
| COCCCc1ccc(/C(=C\[C@H]2CCC(=O)N2)c2ccc(Cl)c(=O)[nH]2)cc1 [Example 4-264, 3-Chloro-6-{(E)-1-[4-(3-methoxypropyl)phenyl]-2-[(2R)-5-oxopyrrolidin-2-yl]ethenyl}pyridin-2(1H)-one] | 5.52 to 6.30 |
| CC(C)Oc1ccc(/C(=C\[C@H]2CCC(=O)N2)c2ccc(C3CC3)c(=O)[nH]2)cc1F [Example 4-275, 3-Cyclopropyl-6-{(E)-1-[3-fluoro-4-(propan-2-yloxy)phenyl]-2-[(2R)-5-oxopyrrolidin-2-yl]ethenyl}pyridin-2(1H)-one] | 6.30 to 8.00 |
| CC(C)Oc1ccc(/C(=C\[C@H]2CCC(=O)N2)c2ccc(C3CC3)c(=O)[nH]2)cc1 [Example 4-276, 3-Cyclopropyl-6-{(E)-2-[(2R)-5-oxopyrrolidin-2-yl]-1-[4-(propan-2-yloxy)phenyl]ethenyl}pyridin-2(1H)-one] | 6.30 to 8.00 |
| O=C1CC[C@H](/C=C(\c2ccc(CO)cc2)c2ccc(Cl)c(=O)[nH]2)N1 [Example 4-277, 3-Chloro-6-{(E)-1-[4-(hydroxymethyl)phenyl]-2-[(2R)-5-oxopyrrolidin-2-yl]ethenyl}pyridin-2(1H)-one] | 5.00 to 5.52 |

More lines, now with the values ahead:

| pEC50 | Compound |
| --- | --- |
| 6.30 to 8.00 | CC(C)(C)c1ccc(/C(=C\[C@H]2CCC(=O)N2)c2ccc(Cc3ccccc3)c(=O)[nH]2)cc1 [Example 4-205, 3-Benzyl-6-{(E)-1-(4-tert-butylphenyl)-2-[(2R)-5-oxopyrrolidin-2-yl]ethenyl}pyridin-2(1H)-one] |
| 6.30 to 8.00 | CSc1ccc(/C(=C/[C@H]2CCC(=O)N2)c2ccc(C(C)(C)C)cc2)[nH]c1=O [Example 4-206, 6-{(E)-1-(4-tert-Butylphenyl)-2-[(2R)-5-oxopyrrolidin-2-yl]ethenyl}-3-(methylsulfanyl)pyridin-2(1H)-one] |
| 6.30 to 8.00 | O=C1CC[C@H](C[C@H](c2ccc(Cl)c(Cl)c2)c2ccc(C3CC3)c(=O)[nH]2)N1 [Example 4-207, 3-Cyclopropyl-6-{(1R)-1-(3,4-dichlorophenyl)-2-[(2R)-5-oxopyrrolidin-2-yl]ethyl}pyridin-2(1H)-one] |
| 6.30 to 8.00 | CCc1ccc(/C(=C\[C@H]2CCC(=O)N2)c2ccc(Cl)c(=O)[nH]2)cc1Cl [Example 4-257, 3-Chloro-6-{(E)-1-(3-chloro-4-ethylphenyl)-2-[(2R)-5-oxopyrrolidin-2-yl]ethenyl}pyridin-2(1H)-one] |
| 6.30 to 8.00 | CC(C)Oc1ccc(/C(=C\[C@H]2CCC(=O)N2)c2ccc(C3CC3)c(=O)[nH]2)cc1Cl [Example 4-258, 6-{(E)-1-[3-Chloro-4-(propan-2-yloxy)phenyl]-2-[(2R)-5-oxopyrrolidin-2-yl]ethenyl}-3-cyclopropylpyridin-2(1H)-one] |
| 6.30 to 8.00 | COc1ccc(/C(=C\[C@H]2CCC(=O)N2)c2ccc(C3CC3)c(=O)[nH]2)cc1Cl [Example 4-260, 6-{(E)-1-(3-Chloro-4-methoxyphenyl)-2-[(2R)-5-oxopyrrolidin-2-yl]ethenyl}-3-cyclopropylpyridin-2(1H)-one] |
| 6.30 to 8.00 | Cc1cc(/C(=C\[C@H]2CCC(=O)N2)c2ccc(C3CC3)c(=O)[nH]2)ccc1C(F)(F)F [Example 4-265, 3-Cyclopropyl-6-{(E)-1-[3-methyl-4-(trifluoromethyl)phenyl]-2-[(2R)-5-oxopyrrolidin-2-yl]ethenyl}pyridin-2(1H)-one] |
| 6.30 to 8.00 | O=C1CC[C@H](/C=C(/c2ccc(C3CC3)c(=O)[nH]2)c2ccc(Cl)cc2F)N1 [Example 4-266, 6-{(E)-1-(4-Chloro-2-fluorophenyl)-2-[(2R)-5-oxopyrrolidin-2-yl]ethenyl}-3-cyclopropylpyridin-2(1H)-one] |
| 6.30 to 8.00 | O=C1CC[C@H](/C=C(/c2ccc(C3CC3)c(=O)[nH]2)c2ccc(C(F)(F)F)cc2F)N1 [Example 4-267, 3-Cyclopropyl-6-{(E)-1-[2-fluoro-4-(trifluoromethyl)phenyl]-2-[(2R)-5-oxopyrrolidin-2-yl]ethenyl}pyridin-2(1H)-one] |
| 6.30 to 8.00 | O=C1CC[C@H](/C=C(\c2ccc(C3CC3)cc2)c2ccc(C3CC3)c(=O)[nH]2)N1 [Example 4-268, 3-Cyclopropyl-6-{(E)-1-(4-cyclopropylphenyl)-2-[(2R)-5-oxopyrrolidin-2-yl]ethenyl}pyridin-2(1H)-one] |
| 6.30 to 8.00 | O=C1CC[C@H](/C=C(\c2ccc(OC3CC3)c(Cl)c2)c2ccc(C3CC3)c(=O)[nH]2)N1 [Example 4-269, 6-{(E)-1-[3-Chloro-4-(cyclopropyloxy)phenyl]-2-[(2R)-5-oxopyrrolidin-2-yl]ethenyl}-3-cyclopropylpyridin-2(1H)-one] |
| 6.30 to 8.00 | O=C1CC[C@H](/C=C(\c2ccc(OCC(F)(F)F)c(Cl)c2)c2ccc(C3CC3)c(=O)[nH]2)N1 [Example 4-270, 6-{(E)-1-[3-Chloro-4-(2,2,2-trifluoroethoxy)phenyl]-2-[(2R)-5-oxopyrrolidin-2-yl]ethenyl}-3-cyclopropylpyridin-2(1H)-one] |
| 6.30 to 8.00 | CCc1ccc(/C(=C\[C@H]2CCC(=O)N2)c2ccc(C3CC3)c(=O)[nH]2)cc1Cl [Example 4-271, 6-{(E)-1-(3-Chloro-4-ethylphenyl)-2-[(2R)-5-oxopyrrolidin-2-yl]ethenyl}-3-cyclopropylpyridin-2(1H)-one] |
| 6.30 to 8.00 | O=C1CC[C@H](/C=C(\c2ccc(CC(F)(F)F)cc2)c2ccc(C3CC3)c(=O)[nH]2)N1 [Example 4-272, 3-Cyclopropyl-6-{(E)-2-[(2R)-5-oxopyrrolidin-2-yl]-1-[4-(2,2,2-trifluoroethyl)phenyl]ethenyl}pyridin-2(1H)-one] |
| 6.30 to 8.00 | O=C1CC[C@H](/C=C(\c2ccc(C(F)F)cc2)c2ccc(C3CC3)c(=O)[nH]2)N1 [Example 4-273, 3-Cyclopropyl-6-{(E)-1-[4-(difluoromethyl)phenyl]-2-[(2R)-5-oxopyrrolidin-2-yl]ethenyl}pyridin-2(1H)-one] |
| 6.30 to 8.00 | COc1cc(F)c(/C(=C\[C@H]2CCC(=O)N2)c2ccc(C3CC3)c(=O)[nH]2)cc1Cl [Example 4-274, 6-{(E)-1-(5-Chloro-2-fluoro-4-methoxyphenyl)-2-[(2R)-5-oxopyrrolidin-2-yl]ethenyl}-3-cyclopropylpyridin-2(1H)-one] |
